Results on three compounds are retold here after patent publication US20200080091A1, “Methods for Treating Obesity of a Subject Suffering from Obesity” (NAKAJIMA Toshihiro, priority 2012, published 2020).

The subject of test [1] is 3T3-L1 cells. In words: adipocyte differentiation induction of 3T3-L1 cells (Oil Red O staining). The test is classed as cell-based, mice. The settings on record: 200 μmol siRNA introduced by Lipofectamine2000 two days before induction of differentiation; compared to a control; FIG. 4. Here is the method:
3T3-L1 cells, which are preadipocytes of mice, were cultivated in Dulbecco's Modified Eagle Medium (DMEM; High Glucose) containing 10% fetal bovine serum (FBS) for 3 days after reaching confluent state. 500 μM of isobutyl-methylxanthine (IBMX), 1 μM of Dexamethasone, and 5 μg/mL of Insulin were added to induce differentiation. At the same time, 10 μM of LS-102 (ubiquitination activity inhibitor of synoviolin) or DMSO was added. After cultivation for 3 days, the medium was replaced with medium containing 4 μg/mL of Insulin and 10 μM of LS-102 or DMSO was added. After cultivation for 3 days, the medium was replaced with DMEM (High Glucose) containing 10% FBS to cultivate for 3 days. For siRNA, 200 μmol of siRNA Syno770 (sense strand consists of the following SEQ ID NO: 2) was introduced by the Lipofectamine2000 two days before induction of differentiation.
After the cultivated 3T3-L1 cells were washed with PBS(−) (Phosphate Buffered Saline solution from which magnesium and calcium had been eliminated), the cells were fixed by 10% formalin. The cells were washed with the PBS(−) to be replaced with 60% isopropanol. After staining for 20 minutes with 18 mg/ml of Oil Red 0 (solvent Isopropanol), the cells were washed with 60% isopropanol and PBS(−) and observed by a microscope.

The target in test [2] is T1, synoviolin protein (Homo sapiens, UniProt Q86TM6).
T1 construct: MBP-Syno ΔTM-His means synoviolin in which transmembrane domain has been deleted
The settings on record: disclosed in Japanese Patent Application Publication No. 2008-74753; cited from earlier work.

T1 sequence (Q86TM6 246-617 limits assumed): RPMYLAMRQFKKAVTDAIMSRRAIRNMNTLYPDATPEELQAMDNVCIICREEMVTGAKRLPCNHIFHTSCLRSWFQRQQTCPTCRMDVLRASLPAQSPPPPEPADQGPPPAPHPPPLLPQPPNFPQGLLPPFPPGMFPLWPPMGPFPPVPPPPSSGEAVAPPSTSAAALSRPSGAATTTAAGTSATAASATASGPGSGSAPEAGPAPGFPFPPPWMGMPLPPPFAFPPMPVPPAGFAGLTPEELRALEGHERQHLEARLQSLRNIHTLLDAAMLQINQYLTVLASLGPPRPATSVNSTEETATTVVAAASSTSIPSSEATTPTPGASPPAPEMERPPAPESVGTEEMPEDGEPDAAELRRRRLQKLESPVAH

In the case of “5′ -GCUGUGACAGAUGCCAUCA-3′ [siRNA Syno770]”, the “differentiation of adipose cells” value in test [1] is given as “differentiation has been suppressed”.
On to `CC1=CC(=O)c2c(O)cccc2C1=O` [plumbagin, 2-methyl-5-hydroxy-1,4-naphthoquinone], for which, in test [2], the “self-ubiquitination of synoviolin protein” value was “inhibit”.
Turning to `O=c1c(O)c(-c2ccc(O)c(O)c2)oc2cc(O)cc(O)c12` [quercetin, 2-(3,4-dihydroxyphenyl)-3,5,7-trihydroxy-4H-1-benzopyrano-4-on], the “self-ubiquitination of synoviolin protein” value in test [2] is recorded as “inhibit”.
